From patent publication US20260248783A1 (ASCLETIS BIOSCIENCE CO., LTD., priority 2021, published 2026)

Columns and labels:
[1] = target: T1, extracellular domains of PD-L1 (Homo sapiens, UniProt Q9NZQ7); assay: PD-L1 Dimerization; format: biochemical; details: PD-L1-Eu and PD-L1-A2, ratio 665 nm/615 nm
T1 construct: specifically dimerize the extracellular domains of PD-L1
Description: Example 108. PD-L1 Dimerization
Compounds were tested in biochemical protein-protein interaction assays to determine if they can specifically dimerize the extracellular domains of PD-L1. • (1) Diluted cpd 1:3 in succession in DMSO for each column for 10 samples • (2) Transferred 0.2 μL cpds solution in each row to 384 assay plate using Echo, each column containing 2 replicates • (3) Added 20 μL prepared mixture include PD-L1-Eu and PD-L1-A2 solution to assay plate, centrifuged at 1000 rpm for 1 min. • (4) Incubated at 25° C. for […]. • (5) Read fluorescence signal on Envision 2104 plate reader. • (6) Read the Ratio (665 nm/615 nm) signal on Envision. • (7) Analyzed the raw data using the equation (V. Data analysis)

PD-1/PD-L1 = target: T2, PD-1/PD-L1 (Homo sapiens, UniProt Q9NZQ7); assay: PD-1/PD-L1 Homogeneous Time-Resolved Fluorescence (HTRF) Binding Assay; details: PD-1/PD-L1 HTRF activity; 3 nM PD1, 10 nM PD-L1, 25° C.
T2 construct: Recombinant human PD-L1 protein (19-238) with a Histag at the C-terminus; purchased AcroBiosystems PD1-H5229 (PD-L1); PD1-H5257 (PD-1)
T2 sequence (Q9NZQ7 19-238): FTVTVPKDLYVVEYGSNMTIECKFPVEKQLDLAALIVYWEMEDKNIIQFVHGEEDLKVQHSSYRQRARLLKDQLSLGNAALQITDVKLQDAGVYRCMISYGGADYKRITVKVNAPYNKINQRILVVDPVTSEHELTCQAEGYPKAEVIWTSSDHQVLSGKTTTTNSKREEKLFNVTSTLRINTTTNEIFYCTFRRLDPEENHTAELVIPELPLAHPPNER
Outline: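 Human PD-L1 (19-238, His-tag) 10 nM and PD-1 (25-167, Fc-tag) 3 nM preincubated 40 min with inhibitor in PBS pH 7.4, 0.05% Tween-20, 0.1% BSA, 1% DMSO, 25 °C. Eu-anti-human IgG (1 nM) and anti-His-APC (20 nM) added, 60 min, 665/620 nm ratio; IC50 from percent control activity versus log concentration.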

T1 sequence (Q9NZQ7 19-238 limits assumed): as the sequence (Q9NZQ7 19-238) above

| Compound | EC50 [1] [nM] | IC50 (PD-1/PD-L1) [nM] |
| --- | --- | --- |
| Cn1c(CN2CC[C@H](C(=O)O)C2)cn2cc(-c3cccc(-c4cccc(-c5cc6c(=O)n(C)c(CN7CC[C@H](C(=O)O)C7)cn6c5)c4Cl)c3Cl)cc2c1=O [Compound 43, (3S,3'S)-1,1′-(((2,2′-dichloro-[1,1′-biphenyl]-3,3′-diyl)bis(2-methyl-1-oxo-1,2-dihydropyrrolo[1,2-a]pyrazine-7,3-diyl))bis(methylene))bis(pyrrolidine-3-carboxylic acid)] | 50 to 100 | 10 to 100 |
| Cc1cn2cc(-c3cccc(-c4cccc(-c5cc6c(=O)n(CCNC[C@@H]7CCC(=O)N7)c(C)cn6c5)c4Cl)c3Cl)cc2c(=O)n1CCNC[C@@H]1CCC(=O)N1 [Compound 49, 7,7′-(2,2′-dichloro-[1,1′-biphenyl]-3,3′-diyl)bis(3-methyl-2-(2-((((S)-5-oxopyrrolidin-2-yl)methyl)amino)ethyl)pyrrolo[1,2-a]pyrazin-1(2H)-one)] | ≥ 100 | < 10 |
| Cn1c(CN[C@@H](CO)C(=O)O)cn2nc(-c3cccc(-c4cccc(-c5cc6c(=O)n(C)c(CN[C@@H](CO)C(=O)O)cn6n5)c4Cl)c3Cl)cc2c1=O [Compound 80, (2S,2'S)-2,2′-((((2,2′-dichloro-[1,1′-biphenyl]-3,3′-diyl)bis(5-methyl-4-oxo-4,5-dihydropyrazolo[1,5-a]pyrazine-2,6-diyl))bis(methylene))bis(azanediyl))bis(3-hydroxypropanoic acid)] | ≥ 100 | 10 to 100 |
| Cc1cn2nc(-c3cccc(-c4cccc(-c5cc6c(=O)n(CCN[C@H]7C[C@H](O)C7)c(C)cn6n5)c4Cl)c3Cl)cc2c(=O)n1CCN[C@H]1C[C@H](O)C1 [Compound 90, 2,2′-(2,2′-dichloro-[1,1′-biphenyl]-3,3′-diyl)bis(5-(2-(((1r,3r)-3-hydroxycyclobutyl)amino)ethyl)-6-methylpyrazolo[1,5-a]pyrazin-4(5H)-one)] | < 50 | < 10 |
| Cc1cn2nc(-c3cccc(-c4cccc(-c5cc6c(=O)n(CCN[C@H]7C[C@@H](O)C7)c(C)cn6n5)c4Cl)c3Cl)cc2c(=O)n1CCN[C@H]1C[C@@H](O)C1 [Compound 91, 2,2′-(2,2′-dichloro-[1,1′-biphenyl]-3,3′-diyl)bis(5-(2-(((1s,3s)-3-hydroxycyclobutyl)amino)ethyl)-6-methylpyrazolo[1,5-a]pyrazin-4(5H)-one)] | < 50 | < 10 |
| Cc1cn2nc(-c3cccc(-c4cccc(-c5cc6c(=O)n(CCN7CCCC7CCO)c(C)cn6n5)c4Cl)c3Cl)cc2c(=O)n1CCN1CCCC1CCO (centres unmarked) [Compound 93, 2,2′-(2,2′-dichloro-[1,1′-biphenyl]-3,3′-diyl)bis(5-(2-(2-(2-hydroxyethyl)pyrrolidin-1-yl)ethyl)-6-methylpyrazolo[1,5-a]pyrazin-4(5H)-one)] | – | 10 to 100 |
| Cc1cn2nc(-c3cccc(-c4cccc(-c5cc6c(=O)n(C(C)CN[C@@H](CO)C(=O)O)c(C)cn6n5)c4Cl)c3Cl)cc2c(=O)n1C(C)CN[C@@H](CO)C(=O)O (stereo partly drawn) [Compound 94, (2S,2'S)-2,2′-((((2,2′-dichloro-[1,1′-biphenyl]-3,3′-diyl)bis(6-methyl-4-oxopyrazolo[1,5-a]pyrazine-2,5(4H)-diyl))bis(propane-2,1-diyl))bis(azanediyl))bis(3-hydroxypropanoic acid)] | – | 10 to 100 |
| Cc1cn2nc(-c3cccc(-c4cccc(-c5cc6c(=O)n(CCN[C@]7(C(=O)O)C[C@H](O)C7)c(C)cn6n5)c4Cl)c3Cl)cc2c(=O)n1CCN[C@]1(C(=O)O)C[C@H](O)C1 [Compound 102, (1S,1'S,3S,3'S)-1,1′-((((2,2′-dichloro-[1,1′-biphenyl]-3,3′-diyl)bis(6-methyl-4-oxopyrazolo[1,5-a]pyrazine-2,5(4H)-diyl))bis(ethane-2,1-diyl))bis(azanediyl)) bis(3-hydroxycyclobutane-1-carboxylic acid)] | – | < 10 |
| (2S,2'S,4R,4′R)-1,1′-(((2,2′-dichloro-[1,1′-biphenyl]-3,3′-diyl)bis(3-methyl-1-oxopyrrolo[1,2-a]pyrazine-7,2(1H)-diyl))bis(ethane-2,1-diyl))bis(4-hydroxypyrrolidine-2-carboxylic acid) [Compound 59] | – | ≥ 100 |
